For 21 compounds, melting point results are on record in patent US20100152230A1, “HYDROXY SUBSTITUTED 1H-IMIDAZOPYRIDINES AND METHODS” (Pfizer Inc., priority 2005, published 2010).

Structures can show the parent of a compound that is named as a salt.

`CCCCCc1cc2c(nc(O)n2Cc2ccccc2)c(N)n1` (as salt: salt) [Example 1, 4-Amino-1-benzyl-6-pentyl-1H-imidazo[4,5-c]pyridin-2-ol]: the melting point – broadly, the temperature, or range, at which the solid turns liquid – fell in the range of 260 to 262 °C.

In the case of `CCCCCc1cc2c(nc(O)n2CCc2ccccc2)c(N)n1` [Example 2, 4-Amino-6-pentyl-1-(2-phenylethyl)-1H-imidazo[4,5-c]pyridin-2-ol], the melting point lay in the range of 238 to 240 °C.

Regarding `CCCCCc1cc2c(nc(O)n2CC(C)(C)O)c(N)n1` [Example 3, 4-Amino-1-(2-hydroxy-2-methylpropyl)-6-pentyl-1H-imidazo[4,5-c]pyridin-2-ol], the melting point lay within 240 to 243 °C.

Turning to `CCCCCc1cc2c(nc(O)n2CC2CCOCC2)c(N)n1` [Example 4, 4-Amino-6-pentyl-1-(tetrahydro-2H-pyran-4-ylmethyl)-1H-imidazo[4,5-c]pyridin-2-ol], the melting point is over 250 °C.

Take `CCCCCc1cc2c(nc(O)n2Cc2cccnc2)c(N)n1` [Example 5, 4-Amino-6-pentyl-1-(pyridin-3-ylmethyl)-1H-imidazo[4,5-c]pyridin-2-ol]: the melting point was 243 to 245 °C.

`CCCCCc1cc2c(nc(O)n2CCOCCCc2nccs2)c(N)n1` [Example 7] showed a melting point of 177 to 178 °C.

Take `CCCCCc1cc2c(nc(O)n2CCCNS(C)(=O)=O)c(N)n1` [Example 8, N-[3-(4-Amino-2-hydroxy-6-pentyl-1H-imidazo[4,5-c]pyridin-1-yl)propyl]methanesulfonamide]: the melting point is 174 to 176 °C.

On to `CCCCCc1cc2c(nc(O)n2CCCNC(C)=O)c(N)n1` [Example 10, N-[3-(4-Amino-2-hydroxy-6-pentyl-1H-imidazo[4,5-c]pyridin-1-yl)propyl]acetamide], for which the melting point is 189 to 191 °C.

The compound `CCCCCc1cc2c(nc(O)n2CC2CCNCC2)c(N)n1` [Example 11, 4-Amino-6-pentyl-1-(piperidin-4-ylmethyl)-1H-imidazo[4,5-c]pyridin-2-ol] yielded a melting point of 246 to 249 °C.

In turn, `CCCCCc1cc2c(nc(O)n2CC2CCN(S(C)(=O)=O)CC2)c(N)n1` [Example 12, 4-Amino-1-{[1-(methylsulfonyl)piperidin-4-yl]methyl}-6-pentyl-1H-imidazo[4,5-c]pyridin-2-ol] showed a melting point of 228 to 231 °C.

In the case of `CCCCCc1cc2c(nc(O)n2CC2CCN(C(C)=O)CC2)c(N)n1` [Example 13, 1-[(1-Acetylpiperidin-4-yl)methyl]-4-amino-6-pentyl-1H-imidazo[4,5-c]pyridin-2-ol], the melting point lay in the range of 228 to 231 °C.

As for `CCCCCc1cc2c(nc(O)n2CC2CCN(S(=O)(=O)CC)CC2)c(N)n1` [Example 14, 4-Amino-1-{[1-(ethylsulfonyl)piperidin-4-yl]methyl}-6-pentyl-1H-imidazo[4,5-c]pyridin-2-ol], the melting point lay within 222 to 225 °C.

With `CCCCCc1cc2c(nc(O)n2CC2CCN(C(=O)C3CC3)CC2)c(N)n1` [Example 15, 4-Amino-1-{[1-(cyclopropylcarbonyl)piperidin-4-yl]methyl}-6-pentyl-1H-imidazo[4,5-c]pyridin-2-ol], the melting point fell in the range of 205 to 207 °C.

In turn, `CCCCCc1cc2c(nc(O)n2CCCCS(C)(=O)=O)c(N)n1` [Example 16, 4-Amino-1-[4-(methylsulfonyl)butyl]-6-pentyl-1H-imidazo[4,5-c]pyridin-2-ol] came in with a melting point of 188 to 189 °C.

The compound `CCCCCc1cc2c(nc(O)n2CCS(C)(=O)=O)c(N)n1` [Example 17, 4-Amino-1-[2-(methylsulfonyl)ethyl]-6-pentyl-1H-imidazo[4,5-c]pyridin-2-ol] gave a melting point of 223 to 225 °C.

`CCOCCc1cc2c(nc(O)n2CCCCS(C)(=O)=O)c(N)n1` [Example 18, 4-Amino-6-(2-ethoxyethyl)-1-[4-(methylsulfonyl)butyl]-1H-imidazo[4,5-c]pyridin-2-ol] yielded a melting point of 203 to 206 °C.

Take `Cc1nc(N)c2nc(O)n(Cc3cc(-c4ccc(F)cc4)no3)c2c1C` [Example 19, 4-Amino-1-{[3-(4-fluorophenyl)isoxazol-5-yl]methyl}-6,7-dimethyl-1H-imidazo[4,5-c]pyridin-2-ol]: the melting point was 250 °C.

`Cc1cc(Cn2c(O)nc3c(N)nc(C)c(C)c32)on1` [Example 20, 4-Amino-6,7-dimethyl-1-[(3-methylisoxazol-5-yl)methyl]-1H-imidazo[4,5-c]pyridin-2-ol] showed a melting point of over 300 °C.

Turning to `CCCCCc1cc2c(nc(O)n2[C@@H](C)c2ccccc2)c(N)n1` [Example 21, 4-Amino-6-pentyl-1-[(1S)-1-phenylethyl]-1H-imidazo[4,5-c]pyridin-2-ol], the melting point was 146.7 to 147.7 °C.

Turning to `CCCCCc1cc2c(nc(O)n2[C@H](C)c2ccccc2)c(N)n1` [Example 22, 4-Amino-6-pentyl-1-[(1R)-1-phenylethyl]-1H-imidazo[4,5-c]pyridin-2-ol], the melting point fell in the range of 147.1 to 148 °C.

As to `CCCCOc1cc2c(nc(O)n2Cc2ccccc2)c(N)n1` [Example 23, 4-amino-1-benzyl-6-butoxy-1H-imidazo[4,5-c]pyridin-2-ol], the melting point was 205 to 208 °C.
